Assay: in vitro
Conditions: human, hela cells, % viability

SMILES	viability at 28.5 h, 10 µM [%]	viability at 28.5 h, 10 µM (bulk resorufin, single well) [%]
CCc1ccc(CNC(=O)Cn2nnc(-c3ccc(CNC4CCC4)cc3)n2)cc1 [CBK155006T]	111	–
CCc1ccc(CNC(=O)Cn2nnc(-c3ccc(CNCCc4ccc(OC)c(OC)c4)cc3)n2)cc1 [CBK155008T]	77.2	–
CS(=O)(=O)c1ccc(CN2C(=O)CC3(CCN(C(=O)c4ccc([N+](=O)[O-])cc4)CC3)C2=O)cc1 [CBK155019]	99	–
COc1cccc(C(=O)N2CCC(NC(=O)c3ccc(C(F)(F)F)cc3)CC2)c1 [CBK155022]	104	–
COc1cccc(C(=O)N2CCC(NC(=O)c3ccccc3C(F)(F)F)CC2)c1 [CBK155024]	99.4	–
COc1cccc(C(=O)N2CCC(NC(=O)c3cc(F)ccc3F)CC2)c1 [CBK155026]	99.4	–
COc1cccc(C(=O)N2CCC(NC(=O)c3csc(-c4ccccc4)n3)CC2)c1 [CBK155030]	90.4	–
CN(C)C(=O)c1ccc(-c2ccc(OC3CCN(C(=O)CCc4cccnc4)CC3)nc2)cc1 [CBK155049]	93.3	–
O=C(O)c1cccc(NS(=O)(=O)c2ccc(F)cc2F)c1 [CBK155084]	95.4	–
CN(C)CCN(Cc1ccccc1)C(=O)NCc1ccc(C#N)cc1 [CBK155097]	89.2	–
CN(C)CCN(Cc1ccccc1)C(=O)NCc1ccc(Cl)cc1 [CBK155106]	94.2	–
CCOC(=O)N1CCC(NC(=O)N(CCN(C)C)Cc2ccccc2)CC1 [CBK155121]	109	–
CCN(Cc1ccncc1)C(=O)NCc1cc(C)on1 [CBK155122]	85.2	–
CCN(Cc1ccncc1)C(=O)NCCCN1CCN(C)CC1 [CBK155123]	108	–
CCN(Cc1ccncc1)C(=O)NCC1CCCCC1 [CBK155132]	103	–
CCN(Cc1ccncc1)C(=O)Nc1ccc2[nH]ccc2c1 [CBK155136]	99.5	–
CCN(Cc1ccncc1)C(=O)NCc1c(Cl)cccc1Cl [CBK155144]	107	–
CCN(Cc1ccncc1)C(=O)NCc1ccc(F)cc1 [CBK155146]	96.4	–
CCN(CC)CCNC(=O)N(CC)Cc1ccncc1 [CBK155151]	105	–
CCN(Cc1ccncc1)C(=O)NC(C)c1ccccc1 (stereo not drawn) [CBK155156]	101	–
Cc1cnc(CNC(=O)N2CCc3ccccc3C2)cn1 [CBK155166]	97.3	–
CSCCCNC(=O)N1CCN(c2ccccc2)CC1 [CBK155170]	96.5	–
O=C(NCc1cccnc1)N1CCN(c2ccccc2)CC1 [CBK155178]	98.2	–

SMILES	viability at 28.5 h, 10 µM [%]	viability at 28.5 h, 10 µM (bulk resorufin, single well) [%]
O=C(Nc1ccc(Cl)cc1)N1CCN(c2ccccc2)CC1 [CBK155188]	101	–
O=C(NCc1c(Cl)cccc1Cl)N1CCN(c2ccccc2)CC1 [CBK155194]	98.5	–
O=C(NC1CCc2ccccc21)N1CCN(c2ccccc2)CC1 (stereo not drawn) [CBK155208]	92.2	–
CCOC(=O)CCCNC(=O)N1CCN(c2ccccc2)CC1 [CBK155209]	94.6	–
CCOC(=O)N1CCC(NC(=O)N2CCN(c3ccccc3)CC2)CC1 [CBK155210]	113	–
CCOC(=O)CCNC(=O)N(CC)Cc1ccccc1 [CBK155228]	88.7	–
O=c1c(N2CCC(Sc3ccccc3)CC2)nccn1Cc1ccc(OC(F)(F)F)cc1 [CBK155257]	94.7	–
COc1ccc(C(=O)N2CCN(C)CC2)cc1Nc1cncc(-c2cc3ccccc3o2)n1 [CBK155266T]	89.9	–
O=C(Nc1ccc2[nH]ccc2c1)N1CCc2ccccc2C1 [CBK155289]	84.5	–
NC(=O)c1ccc(NC(=O)N2CCc3ccccc3C2)cc1 [CBK155299]	80.9	–
CC(NC(=O)N1CCc2ccccc2C1)c1ccccc1 (stereo not drawn) [CBK155310]	102	–
O=C(Nc1cccnc1)N1CCc2ccccc2C1 [CBK155312]	100	–
COc1cc(CNC(=O)N(CCc2ccccc2)Cc2ccccc2)cc(OC)c1OC [CBK155329]	110	–
CC(C)CNC(=O)N(CCc1ccccc1)Cc1ccccc1 [CBK155339]	93.8	–
CC(C)CCNC(=O)N(CCc1ccccc1)Cc1ccccc1 [CBK155351]	90.8	–
CCOC(=O)N1CCC(NC(=O)N(CCc2ccccc2)Cc2ccccc2)CC1 [CBK155359]	107	–
COc1ccccc1N1CCN(C(=O)NCc2cnc(C)cn2)CC1 [CBK155367]	105	–
COc1ccccc1N1CCN(C(=O)NCCc2c[nH]cn2)CC1 [CBK155369]	98.8	–
COc1cc(C(=O)N2CCC(n3c(=O)[nH]c4c(C)cccc43)CC2)ccc1C [CBK155372]	94.2	–
COC(=O)C1CCN(Cc2ccc(-c3nnn(CC(=O)NCc4ccc(C)cc4)n3)cc2)C1 (stereo not drawn) [CBK155406T]	105	–
Cc1ccc(CNC(=O)Cn2nnc(-c3ccc(CN4CCC(S(C)(=O)=O)C4)cc3)n2)cc1 (stereo not drawn) [CBK155407T]	91.7	–
CCCS(=O)(=O)Nc1cccc(-c2nnn[nH]2)c1 [CBK155417]	104	–
O=[N+]([O-])c1ccccc1CS(=O)(=O)Nc1ccc(-c2nnn[nH]2)cc1 [CBK155430]	94.5	–

SMILES	viability at 28.5 h, 10 µM [%]	viability at 28.5 h, 10 µM (bulk resorufin, single well) [%]
O=C(Nc1cccc(C(=O)O)c1)Nc1cccc(-c2ccccc2)c1 [CBK155451G]	93.5	–
O=C(Nc1cccc(-c2nnn[nH]2)c1)Nc1ccc(Cl)c(Cl)c1 [CBK155454]	96.3	–
O=C(Nc1cccc(C(=O)O)c1)Nc1ccc(Cl)c(Cl)c1 [CBK155455G]	88.7	–
O=C(NCc1ccc(Cl)c(Cl)c1)Nc1cccc(C(=O)O)c1 [CBK155461G]	109	–
COc1cc(C(=O)N2CCC(N3C(=O)Cc4ccccc43)CC2)ccc1C [CBK155465]	–	84.2
CCc1c(C)nc2ccccc2c1[S+]([O-])CCC(=O)OC (stereo not drawn) [CBK155467T]	91.8	–
CCc1c(C)nc2ccccc2c1S(=O)(=O)CCC(=O)OC [CBK155468T]	96.8	–
O=C(Nc1ccc(Br)cc1)C1CCCN1S(=O)(=O)c1ccc(Cl)cc1 (stereo not drawn) [CBK155481]	88.4	–
CCc1c(C)nc2ccccc2c1SCCOC(=O)Nc1cccc([N+](=O)[O-])c1 [CBK155545T]	106	–
COc1ccc(C)cc1S(=O)(=O)n1cc2c3c(cccc31)CN(C(=O)CN(C)C)C2 [CBK155549T]	93.3	–
O=S(=O)(Nc1ccc(-c2nnn[nH]2)cc1)c1c(Cl)cc(C(F)(F)F)cc1Cl [CBK155570]	95.4	–
CCCCOc1ccc(OC(=O)COCCOCCN2C(=O)c3ccccc3C2=O)cc1 [CBK155584]	92.6	–
COc1ccccc1N1CCN(C(=O)NCC2CCCCC2)CC1 [CBK155588]	98.3	–
COc1ccccc1N1CCN(C(=O)Nc2ccc(Cl)cc2)CC1 [CBK155597]	94.5	–
COc1ccccc1N1CCN(C(=O)NCCC(C)C)CC1 [CBK155611]	94.5	–
CSCCCNC(=O)N1CCN(Cc2ccccc2)CC1 [CBK155623]	89.9	–
O=C(NCc1ccc(Cl)c(Cl)c1)N1CCN(Cc2ccccc2)CC1 [CBK155624]	85.3	–
Cc1cnc(CNC(=O)N2CCN(Cc3ccccc3)CC2)cn1 [CBK155627]	99.3	–
O=C(NCc1cccc2ccccc12)N1CCN(Cc2ccccc2)CC1 [CBK155628]	92.2	–
O=C(NCCc1c[nH]cn1)N1CCN(Cc2ccccc2)CC1 [CBK155629]	96.4	–
O=C(NC(c1ccccc1)c1ccccc1)N1CCN(Cc2ccccc2)CC1 [CBK155630]	86.3	–
N#Cc1ccc(CNC(=O)N2CCN(Cc3ccccc3)CC2)cc1 [CBK155637]	90.1	–
CC(=O)Nc1cccc(NC(=O)N2CCN(Cc3ccccc3)CC2)c1 [CBK155643]	98	–

SMILES	viability at 28.5 h, 10 µM [%]	viability at 28.5 h, 10 µM (bulk resorufin, single well) [%]
CC(C)CNC(=O)N1CCN(Cc2ccccc2)CC1 [CBK155644]	110	–
CCN(CC)CCCNC(=O)N1CCN(Cc2ccccc2)CC1 [CBK155655]	89.8	–
O=C1CCCN1CCCNC(=O)N1CCN(Cc2ccccc2)CC1 [CBK155658]	104	–
Cc1cc(Cl)cc(Cl)c1S(=O)(=O)Nc1cccc(C(=O)O)c1 [CBK155682]	93	–
O=C(O)c1cccc(NS(=O)(=O)c2cccc(Cl)c2Cl)c1 [CBK155686]	94.7	–
O=C(O)c1cccc(NS(=O)(=O)c2ccc(F)c(C(F)(F)F)c2)c1 [CBK155693]	97.2	–
O=C(O)c1cccc(NS(=O)(=O)c2ccc3c(c2)OCCO3)c1 [CBK155697]	96.9	–
O=C(O)c1cccc(NS(=O)(=O)c2cccnc2)c1 [CBK155700]	101	–
O=C(O)c1cccc(NS(=O)(=O)c2ccccc2)c1 [CBK155710]	79.7	–
N#Cc1c(Cl)cccc1Oc1ccc(S(=O)(=O)Nc2cccc(C(=O)O)c2)cc1 [CBK155718]	108	–
O=C(O)c1cccc(NS(=O)(=O)c2c(Cl)cc(C(F)(F)F)cc2Cl)c1 [CBK155721]	96.3	–
O=C(O)c1cccc(NS(=O)(=O)c2ccc(-c3cc(C(F)(F)F)on3)s2)c1 [CBK155722]	98	–
O=C(O)c1cccc(NS(=O)(=O)c2ccc(Br)cc2C(F)(F)F)c1 [CBK155724]	90.9	–
O=C(O)c1cccc(NS(=O)(=O)c2cc(C(F)(F)F)cc(C(F)(F)F)c2)c1 [CBK155725]	102	–
O=C(O)c1cccc(NS(=O)(=O)c2ccc(-c3cnco3)cc2)c1 [CBK155726]	97.4	–
CN(C)S(=O)(=O)Nc1ccc2c(ccn2Cc2ccccc2)c1 [CBK155765]	86.6	–
N#Cc1cccc(S(=O)(=O)Nc2cccc3[nH]ccc23)c1 [CBK155771]	60.6	–
O=S(=O)(/C=C/c1ccccc1)Nc1cccc2cc[nH]c12 [CBK155788]	82.7	–
O=C1CN(C(=O)NCC2COc3ccccc3O2)CCN1 (stereo not drawn) [CBK155847]	88.3	–
O=C1CN(C(=O)NC(c2ccccc2)c2ccccc2)CCN1 [CBK155853]	93.6	–
O=C1CN(C(=O)NCC2CCCCC2)CCN1 [CBK155854]	85.9	–

— PMC12040169 (PLOS Biology, 2025)
